Data from ChEMBL document CHEMBL3124838, “Discovery of 6-aryl-azabenzimidazoles that inhibit the TBK1/IKK-ε kinases” (Bioorg Med Chem Lett, 2014).

Columns and labels:
[1] = biological target: High affinity nerve growth factor receptor (Homo sapiens) (UniProt P04629); assay: Inhibition of human TRKA assessed as residual activity at 1 uM relative to control
[2] = biological target: Calcium/calmodulin-dependent protein kinase type II subunit beta (Homo sapiens) (UniProt Q13554); assay: Inhibition of human CaMK2beta assessed as residual activity at 1 uM relative to control
[3] = biological target: Ribosomal protein S6 kinase beta-1 (Homo sapiens) (UniProt P23443); assay: Inhibition of human p70S6K assessed as residual activity at 1 uM relative to control
[4] = biological target: T1, Serine/threonine-protein kinase STK11 (Homo sapiens) (UniProt Q15831); assay: Inhibition of human LKB1 assessed as residual activity at 1 uM relative to control
T1 sequence (whole entry): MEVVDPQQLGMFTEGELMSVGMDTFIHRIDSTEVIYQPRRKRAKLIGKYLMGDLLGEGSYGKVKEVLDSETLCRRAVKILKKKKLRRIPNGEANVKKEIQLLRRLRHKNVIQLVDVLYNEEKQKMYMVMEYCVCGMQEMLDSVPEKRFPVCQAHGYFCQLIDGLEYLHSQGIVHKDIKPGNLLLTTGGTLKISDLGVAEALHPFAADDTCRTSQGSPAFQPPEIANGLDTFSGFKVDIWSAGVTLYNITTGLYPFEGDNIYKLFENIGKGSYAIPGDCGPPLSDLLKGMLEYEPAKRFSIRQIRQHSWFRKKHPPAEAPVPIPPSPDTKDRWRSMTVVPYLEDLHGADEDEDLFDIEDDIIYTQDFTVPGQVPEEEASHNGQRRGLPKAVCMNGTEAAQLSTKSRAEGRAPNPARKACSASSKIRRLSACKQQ

[5] = biological target: Protein kinase C theta type (Homo sapiens) (UniProt Q04759); assay: Inhibition of human PKC-theta assessed as residual activity at 1 uM relative to control
[6] = biological target: Tyrosine-protein kinase BTK (Homo sapiens) (UniProt Q06187); assay: Inhibition of human BTK assessed as residual activity at 1 uM relative to control
[7] = biological target: Receptor-type tyrosine-protein kinase FLT3 (Homo sapiens) (UniProt P36888); assay: Inhibition of human FLT3 assessed as residual activity at 1 uM relative to control
[8] = biological target: Cyclin-dependent kinase 2 (Homo sapiens, UniProt P24941); assay: Inhibition of CDK2 (unknown origin)
[9] = biological target: Serine/threonine-protein kinase MARK1 (Homo sapiens) (UniProt Q9P0L2); assay: Inhibition of human MARK1 assessed as residual activity at 1 uM relative to control
[10] = biological target: Casein kinase II subunit alpha' (Homo sapiens) (UniProt P19784); assay: Inhibition of human CK2-alpha2 assessed as residual activity at 1 uM relative to control
[11] = biological target: T2, Serine/threonine-protein kinase TBK1 (Homo sapiens, UniProt Q9UHD2); assay: Inhibition of recombinant full-length TBK1 (unknown origin) using CK1tide as substrate by microfluidic mobility shift assay
T2 sequence (Q9UHD2 whole entry): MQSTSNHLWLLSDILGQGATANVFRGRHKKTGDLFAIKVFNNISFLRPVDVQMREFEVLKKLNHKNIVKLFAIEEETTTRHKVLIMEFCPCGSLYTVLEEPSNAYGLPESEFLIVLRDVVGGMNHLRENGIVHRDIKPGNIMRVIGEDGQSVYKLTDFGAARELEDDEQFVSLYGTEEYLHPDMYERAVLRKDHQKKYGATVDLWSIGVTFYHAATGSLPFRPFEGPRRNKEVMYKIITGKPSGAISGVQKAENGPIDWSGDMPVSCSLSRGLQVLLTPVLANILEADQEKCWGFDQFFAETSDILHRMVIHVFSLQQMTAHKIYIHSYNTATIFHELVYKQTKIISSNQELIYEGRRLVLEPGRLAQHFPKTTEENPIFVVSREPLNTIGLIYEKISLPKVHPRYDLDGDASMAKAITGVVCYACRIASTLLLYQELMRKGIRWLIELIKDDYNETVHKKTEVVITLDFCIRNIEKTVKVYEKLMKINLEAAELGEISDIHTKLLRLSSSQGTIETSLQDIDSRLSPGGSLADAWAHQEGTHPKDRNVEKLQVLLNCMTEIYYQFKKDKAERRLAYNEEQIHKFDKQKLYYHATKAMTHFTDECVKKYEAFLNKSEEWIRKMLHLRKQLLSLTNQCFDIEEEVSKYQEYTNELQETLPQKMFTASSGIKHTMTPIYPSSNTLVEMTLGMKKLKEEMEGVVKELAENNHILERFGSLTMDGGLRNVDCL

[12] = biological target: RAF proto-oncogene serine/threonine-protein kinase (Homo sapiens) (UniProt P04049); assay: Inhibition of human c-RAF assessed as residual activity at 1 uM relative to control
[13] = biological target: PI3-kinase p110-alpha/p85-alpha (Homo sapiens) (UniProt P27986+P42336); assay: Inhibition of human PI3K p110alpha/p85alpha assessed as residual activity at 1 uM relative to control; format: protein-complex assay
[14] = biological target: Platelet-derived growth factor receptor beta (Homo sapiens) (UniProt P09619); assay: Inhibition of human PDGFRbeta assessed as residual activity at 1 uM relative to control
[15] = biological target: Fibroblast growth factor receptor 2 (Homo sapiens) (UniProt P21802); assay: Inhibition of human FGFR2 assessed as residual activity at 1 uM relative to control
[16] = biological target: ALK tyrosine kinase receptor (Homo sapiens) (UniProt Q9UM73); assay: Inhibition of human ALK assessed as residual activity at 1 uM relative to control
[17] = biological target: T3, Serine/threonine-protein kinase Chk1 (Homo sapiens) (UniProt O14757); assay: Inhibition of human CHK1 assessed as residual activity at 1 uM relative to control
T3 sequence (whole entry): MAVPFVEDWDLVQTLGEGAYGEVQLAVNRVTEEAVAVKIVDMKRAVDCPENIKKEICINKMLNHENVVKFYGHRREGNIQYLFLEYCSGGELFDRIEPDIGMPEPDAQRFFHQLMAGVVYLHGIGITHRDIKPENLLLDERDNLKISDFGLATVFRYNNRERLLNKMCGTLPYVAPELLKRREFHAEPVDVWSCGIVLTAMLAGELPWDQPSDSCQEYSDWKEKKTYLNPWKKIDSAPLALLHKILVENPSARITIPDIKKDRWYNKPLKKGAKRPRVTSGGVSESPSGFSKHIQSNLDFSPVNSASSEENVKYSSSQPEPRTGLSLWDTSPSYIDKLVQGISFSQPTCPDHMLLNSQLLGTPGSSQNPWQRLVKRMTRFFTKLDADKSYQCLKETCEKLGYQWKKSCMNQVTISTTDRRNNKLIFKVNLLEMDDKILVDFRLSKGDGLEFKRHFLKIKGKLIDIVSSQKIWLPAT

[18] = biological target: Rho-associated protein kinase 2 (Homo sapiens) (UniProt O75116); assay: Inhibition of human ROCK-2 assessed as residual activity at 1 uM relative to control
[19] = biological target: Macrophage colony-stimulating factor 1 receptor (Homo sapiens) (UniProt P07333); assay: Inhibition of human FMS assessed as residual activity at 1 uM relative to control

Rho-associated protein kinase 2 (Homo sapiens), sequence (O75116 whole entry, looked up): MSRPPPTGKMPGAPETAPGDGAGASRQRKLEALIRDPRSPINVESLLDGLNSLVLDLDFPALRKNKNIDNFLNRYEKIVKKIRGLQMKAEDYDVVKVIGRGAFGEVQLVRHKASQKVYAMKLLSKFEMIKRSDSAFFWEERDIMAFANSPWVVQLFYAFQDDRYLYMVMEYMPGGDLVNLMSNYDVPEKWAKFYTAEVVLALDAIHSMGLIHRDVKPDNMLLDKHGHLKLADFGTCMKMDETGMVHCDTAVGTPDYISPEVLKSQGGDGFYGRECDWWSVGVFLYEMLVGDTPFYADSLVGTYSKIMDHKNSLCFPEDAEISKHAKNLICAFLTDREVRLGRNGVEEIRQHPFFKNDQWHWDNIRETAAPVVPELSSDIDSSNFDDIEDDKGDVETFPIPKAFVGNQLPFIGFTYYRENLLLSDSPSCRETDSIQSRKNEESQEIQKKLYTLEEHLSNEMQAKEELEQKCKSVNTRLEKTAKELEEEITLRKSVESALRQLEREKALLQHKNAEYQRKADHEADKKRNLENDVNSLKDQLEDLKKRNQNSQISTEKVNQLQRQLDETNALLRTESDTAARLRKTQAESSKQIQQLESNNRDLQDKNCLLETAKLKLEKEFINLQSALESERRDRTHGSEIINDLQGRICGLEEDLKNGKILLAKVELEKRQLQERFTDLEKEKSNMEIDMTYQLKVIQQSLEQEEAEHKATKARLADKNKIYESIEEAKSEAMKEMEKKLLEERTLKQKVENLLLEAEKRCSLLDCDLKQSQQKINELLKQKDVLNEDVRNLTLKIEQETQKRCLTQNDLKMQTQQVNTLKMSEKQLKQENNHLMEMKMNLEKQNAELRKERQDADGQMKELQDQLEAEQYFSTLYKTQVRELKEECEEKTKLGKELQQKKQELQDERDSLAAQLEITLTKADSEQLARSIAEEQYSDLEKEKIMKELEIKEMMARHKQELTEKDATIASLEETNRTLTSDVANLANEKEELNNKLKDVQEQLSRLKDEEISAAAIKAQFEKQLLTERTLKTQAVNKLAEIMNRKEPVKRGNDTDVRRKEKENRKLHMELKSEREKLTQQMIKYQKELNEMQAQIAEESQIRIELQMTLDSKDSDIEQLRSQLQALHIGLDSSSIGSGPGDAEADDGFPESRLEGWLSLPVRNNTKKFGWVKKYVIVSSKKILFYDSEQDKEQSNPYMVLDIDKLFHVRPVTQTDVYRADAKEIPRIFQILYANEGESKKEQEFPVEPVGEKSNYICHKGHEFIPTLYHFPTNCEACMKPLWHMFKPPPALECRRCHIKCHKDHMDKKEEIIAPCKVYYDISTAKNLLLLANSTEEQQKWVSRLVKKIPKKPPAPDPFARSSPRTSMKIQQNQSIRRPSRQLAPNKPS
Fibroblast growth factor receptor 2 (Homo sapiens), sequence (P21802 22-821 limits assumed): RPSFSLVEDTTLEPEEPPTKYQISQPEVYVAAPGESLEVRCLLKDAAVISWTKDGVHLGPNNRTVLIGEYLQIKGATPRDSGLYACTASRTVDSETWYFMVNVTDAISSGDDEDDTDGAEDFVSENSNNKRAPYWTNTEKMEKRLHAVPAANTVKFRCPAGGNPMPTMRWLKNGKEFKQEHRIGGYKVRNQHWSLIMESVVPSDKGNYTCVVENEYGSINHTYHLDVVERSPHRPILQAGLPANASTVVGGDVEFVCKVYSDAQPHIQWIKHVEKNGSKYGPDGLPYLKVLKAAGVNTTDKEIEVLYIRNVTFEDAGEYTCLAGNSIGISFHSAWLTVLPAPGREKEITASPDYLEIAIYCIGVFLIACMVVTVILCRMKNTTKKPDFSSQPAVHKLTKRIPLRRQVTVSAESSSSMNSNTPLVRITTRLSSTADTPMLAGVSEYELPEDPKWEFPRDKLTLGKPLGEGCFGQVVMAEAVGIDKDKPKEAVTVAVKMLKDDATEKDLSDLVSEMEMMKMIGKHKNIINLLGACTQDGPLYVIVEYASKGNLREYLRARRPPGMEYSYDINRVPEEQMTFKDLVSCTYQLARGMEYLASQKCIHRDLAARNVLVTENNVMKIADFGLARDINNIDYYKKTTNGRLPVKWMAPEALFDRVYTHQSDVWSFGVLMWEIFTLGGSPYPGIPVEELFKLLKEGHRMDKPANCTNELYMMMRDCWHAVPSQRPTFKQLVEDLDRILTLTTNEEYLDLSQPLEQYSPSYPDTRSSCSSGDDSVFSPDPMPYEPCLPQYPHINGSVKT
Protein kinase C theta type (Homo sapiens), sequence (Q04759 whole entry, looked up): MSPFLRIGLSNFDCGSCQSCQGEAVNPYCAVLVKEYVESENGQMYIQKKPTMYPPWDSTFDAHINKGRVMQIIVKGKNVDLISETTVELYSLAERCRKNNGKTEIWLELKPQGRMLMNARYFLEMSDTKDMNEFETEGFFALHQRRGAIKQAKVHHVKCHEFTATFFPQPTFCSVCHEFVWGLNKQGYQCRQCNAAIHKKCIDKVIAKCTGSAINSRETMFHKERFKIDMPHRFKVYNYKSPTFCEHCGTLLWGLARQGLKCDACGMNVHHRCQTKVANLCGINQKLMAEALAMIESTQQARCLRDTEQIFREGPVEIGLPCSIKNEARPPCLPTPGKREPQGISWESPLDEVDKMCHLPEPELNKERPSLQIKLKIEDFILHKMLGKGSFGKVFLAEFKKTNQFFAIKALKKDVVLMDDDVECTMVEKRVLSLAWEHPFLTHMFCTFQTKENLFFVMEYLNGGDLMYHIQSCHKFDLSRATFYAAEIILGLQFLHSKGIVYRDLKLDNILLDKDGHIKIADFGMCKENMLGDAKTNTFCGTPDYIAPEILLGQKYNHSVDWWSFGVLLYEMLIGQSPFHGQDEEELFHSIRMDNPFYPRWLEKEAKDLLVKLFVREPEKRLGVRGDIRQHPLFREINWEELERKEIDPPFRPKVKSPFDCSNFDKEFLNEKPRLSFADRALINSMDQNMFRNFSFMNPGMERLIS
RAF proto-oncogene serine/threonine-protein kinase (Homo sapiens), sequence (P04049 whole entry): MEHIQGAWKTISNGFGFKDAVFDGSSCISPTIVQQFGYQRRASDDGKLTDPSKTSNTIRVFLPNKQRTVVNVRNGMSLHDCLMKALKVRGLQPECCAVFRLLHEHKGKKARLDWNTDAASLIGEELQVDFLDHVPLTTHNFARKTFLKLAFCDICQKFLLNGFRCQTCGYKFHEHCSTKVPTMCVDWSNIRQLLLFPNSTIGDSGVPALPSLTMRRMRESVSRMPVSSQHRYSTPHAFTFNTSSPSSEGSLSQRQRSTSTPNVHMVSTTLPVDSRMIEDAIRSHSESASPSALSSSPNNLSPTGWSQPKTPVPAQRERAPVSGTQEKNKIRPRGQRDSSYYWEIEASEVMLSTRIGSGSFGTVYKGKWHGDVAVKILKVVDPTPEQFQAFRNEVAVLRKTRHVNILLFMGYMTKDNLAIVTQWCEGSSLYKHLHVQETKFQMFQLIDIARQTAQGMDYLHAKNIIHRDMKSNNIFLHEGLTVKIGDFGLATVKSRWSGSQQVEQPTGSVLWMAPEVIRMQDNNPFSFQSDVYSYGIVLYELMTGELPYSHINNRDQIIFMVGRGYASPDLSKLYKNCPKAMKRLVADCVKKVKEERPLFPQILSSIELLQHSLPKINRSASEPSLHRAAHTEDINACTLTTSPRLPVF
Platelet-derived growth factor receptor beta (Homo sapiens), sequence (P09619 whole entry): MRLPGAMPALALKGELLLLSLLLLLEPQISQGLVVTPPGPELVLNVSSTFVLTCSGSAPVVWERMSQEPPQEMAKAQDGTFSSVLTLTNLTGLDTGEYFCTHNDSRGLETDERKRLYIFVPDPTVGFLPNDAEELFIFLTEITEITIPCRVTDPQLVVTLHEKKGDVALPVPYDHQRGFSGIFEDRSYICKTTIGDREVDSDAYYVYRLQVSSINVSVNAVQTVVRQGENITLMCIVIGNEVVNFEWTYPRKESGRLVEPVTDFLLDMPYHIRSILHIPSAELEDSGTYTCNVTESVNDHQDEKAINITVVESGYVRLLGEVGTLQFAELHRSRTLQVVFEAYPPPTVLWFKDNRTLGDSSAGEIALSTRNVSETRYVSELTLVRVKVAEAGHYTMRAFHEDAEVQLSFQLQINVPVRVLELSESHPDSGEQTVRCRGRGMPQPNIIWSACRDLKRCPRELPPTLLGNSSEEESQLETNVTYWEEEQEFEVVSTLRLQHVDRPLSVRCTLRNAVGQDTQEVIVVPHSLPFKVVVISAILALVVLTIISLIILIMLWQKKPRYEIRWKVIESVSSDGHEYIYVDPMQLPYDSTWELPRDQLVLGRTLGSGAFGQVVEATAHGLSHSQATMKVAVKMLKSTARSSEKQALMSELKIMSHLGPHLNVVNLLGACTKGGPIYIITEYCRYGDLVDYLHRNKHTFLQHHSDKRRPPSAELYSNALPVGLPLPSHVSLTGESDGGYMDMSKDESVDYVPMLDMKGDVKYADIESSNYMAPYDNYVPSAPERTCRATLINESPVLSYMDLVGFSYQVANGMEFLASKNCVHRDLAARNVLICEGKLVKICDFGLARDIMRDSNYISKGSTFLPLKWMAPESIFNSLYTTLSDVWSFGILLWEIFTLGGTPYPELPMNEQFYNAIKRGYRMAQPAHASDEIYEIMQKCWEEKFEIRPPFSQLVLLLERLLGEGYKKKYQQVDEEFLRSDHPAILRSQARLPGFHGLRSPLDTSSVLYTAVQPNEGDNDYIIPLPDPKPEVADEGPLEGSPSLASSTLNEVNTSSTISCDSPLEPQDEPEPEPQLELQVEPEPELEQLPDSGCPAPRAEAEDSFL
Casein kinase II subunit alpha' (Homo sapiens), sequence (P19784 whole entry, looked up): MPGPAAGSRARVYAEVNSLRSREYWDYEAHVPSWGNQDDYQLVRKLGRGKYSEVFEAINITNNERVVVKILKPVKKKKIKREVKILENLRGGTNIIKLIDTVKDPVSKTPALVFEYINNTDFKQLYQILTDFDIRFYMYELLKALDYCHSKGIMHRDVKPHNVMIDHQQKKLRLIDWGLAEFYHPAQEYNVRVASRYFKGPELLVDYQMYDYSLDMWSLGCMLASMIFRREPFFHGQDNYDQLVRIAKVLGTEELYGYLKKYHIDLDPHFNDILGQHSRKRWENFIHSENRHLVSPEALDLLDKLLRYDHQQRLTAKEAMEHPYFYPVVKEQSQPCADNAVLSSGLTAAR

Activity [1]	Activity [2]	Activity [3]	Activity [4]	Activity [5]	Activity [6]	Activity [7]	IC50 [8]	Activity [9]	Activity [10]	IC50 [11]	Activity [12]	Activity [13]	Activity [14]	Activity [15]	Activity [16]	Activity [17]	Activity [18]	Activity [19]	Compound
67%	97%	80%	97%	98%	93%	18%	> 30000 nM	61%	59%	143 nM	92%	88%	70%	90%	88%	90%	102%	70%	COc1ccc(-c2nc3cc(-c4csc(C(=O)NCCC(C)C)c4)cnc3[nH]2)cc1
77%	98%	87%	81%	90%	100%	30%	> 30000 nM	58%	74%	84 nM	108%	86%	82%	100%	101%	103%	108%	70%	COc1ccc(-c2nc3cc(-c4csc(C(=O)NCC(C)(C)C)c4)cnc3[nH]2)cc1
59%	96%	84%	92%	89%	112%	6%	> 30000 nM	48%	91%	77 nM	96%	91%	64%	88%	99%	99%	108%	63%	COc1ccc(-c2nc3cc(-c4csc(C(=O)NCC(C)C)c4)cnc3[nH]2)cc1
